The values that follow come from patent publication US12643906B2, “Fused aza-heterocyclic amide compound and use thereof” (CSPC ZHONGQI PHARMACEUTICAL TECHNOLOGY (SHIJIAZHUANG) CO., …, priority 2020, dated 2026).

Read-outs that look alike come from different tables or passages of the source. A value given as a limit tells only on which side of the number the result lay.

Series [1] has as its target T1, TRKA (Homo sapiens, UniProt P04629).
T1 construct: purchased Bioduro
The series is described as follows: HTRF kinase inhibition assay, TRKA. The series is classed as biochemical. The protocol:
(§1) The compound to be tested with a certain concentration gradient and an enzyme solution were successively added into a plate (kinase buffer (1× kinase buffer (Cisbio, Cat #62EZBFDD), pH 7.5; 5 mM MgCl2, 1 mM DTT) was added into negative control wells), and the compound plate was centrifuged at 1000 rpm for 30 seconds. The plate was sealed and incubated in a Constant Temperature Incubator at 25° C. for 30 min. A substrate solution containing TK-Sub-biotin (Cisbio, Cat #61TKOBL) and ATP (Sigma, Cat #R0441) was prepared, the substrate solution was added into a 384-well plate, and the plate was centrifuged at 1000 rpm for 30 seconds. The plate was sealed and incubated in a Constant Temperature Incubator at 25° C. for 60 min.
(§2) TK antibody and XL665 were diluted, mixed and added into the assay plate, and the plate was centrifuged at 1000 rpm for 30 seconds. The plate was sealed and incubated in a Constant Temperature incubator Incubator at 25° C. for 60 min. The assay plate was placed on an Envision reader for reading. (HTRF 665/615 ratio: signal value at 665 nm/signal value at 615 nm) Inhibition=(rationegative control well−ratiocompound well)/(rationegative control well−ratioenzyme-free control well)×100% 1.3 Data Analysis and Curve Fitting
(§3) Data were fitted in XLFit excel add-in version 5.4.0.8 to obtain IC50 values.
(Time-resolved FRET reads energy transfer from a long-lived donor to a nearby acceptor.)

Series [2] addresses T2, TRKB (Homo sapiens, UniProt Q16620).
T2 construct: purchased Bioduro
The series is described as follows: HTRF kinase inhibition assay, TRKB. It counts as biochemical. The protocol: as §1
(§4) TK antibody and XL665 were diluted, mixed and added into the assay plate, and the plate was centrifuged at 1000 rpm for 30 seconds. The plate was sealed and incubated in a Constant Temperature incubator Incubator at 25° C. for 60 min. The assay plate was placed on an Envision reader for reading.
as §3

Series [3] deals with T3, TRKC (Homo sapiens, UniProt Q16288).
T3 construct: purchased Bioduro
As to the kind of experiment: HTRF kinase inhibition assay, TRKC. The series is classed as biochemical. On the procedure: as §1, §2, §3

The target of series [4] is T4, TRKA(G595R) (Homo sapiens, UniProt P04629, G595R).
T4 construct: purchased signalchem
As to the kind of experiment: HTRF kinase inhibition assay, TRKA(G595R). The series is classed as biochemical. On the procedure:
as §1, §2, §3

Series [5] deals with T5, TRKA(G667C) (Homo sapiens, UniProt P04629, G667C).
T5 construct: purchased signalchem
The series is described as follows: HTRF kinase inhibition assay, TRKA(G667C). It counts as biochemical. On the procedure:
as §1, §2, §3

Series [6] has as its target T6, TRKC(G623R) (Homo sapiens, UniProt Q16288, G623R).
T6 construct: purchased Bioduro
As to the kind of experiment: HTRF kinase inhibition assay, TRKC(G623R). The series is classed as biochemical. On the procedure: as §1, §2, §3

The target in series [7] is T7, TRKC(G696A) (Homo sapiens, UniProt Q16288, G696A).
T7 construct: purchased Bioduro
The series is described as follows: HTRF kinase inhibition assay, TRKC(G696A). It counts as biochemical. The protocol:
as §1, §4, §3

In series [8] the target is T8, ALK (Homo sapiens, UniProt Q9UM73).
T8 construct: purchased Carna 08-105
As to the kind of experiment: Kinase inhibition assay with fluorescein labeled peptide, ALK. The series is classed as biochemical. The protocol:
(§5) Compounds were diluted to a certain concentration in DMSO with 4-fold gradients. The compound with a certain concentration, an enzyme solution and DMSO were added into a 384-well plate, and the plate was incubated at room temperature for 10 min. […] The plate was subjected to reading.

The target of series [9] is T9, ROS1 (Homo sapiens, UniProt P08922).
T9 construct: purchased Carna 08-163
The series is described as follows: Kinase inhibition assay with fluorescein labeled peptide, ROS1. It counts as biochemical. On the procedure: as §5

The target of series [10] is T10, Ba/F3 ETV6-NTRK2 (Homo sapiens, UniProt Q16620).
T10 construct: fused on or other part: P41212 (Transcription factor ETV6)
The series is described as follows: In vitro cell proliferation inhibition (MTT). The series is classed as cell-based, murine. The following applies: 72 h, read-out: IC50 Ba/F3 ETV6-NTRK2. On the procedure:
(§6) Cells in the logarithmic growth phase were harvested and counted using a […]. The cell suspension with a certain density was pipetted uniformly and seeded into a 96-well plate with each well of 100 μL, and shaken to make the cells uniformly disperse into the wells. 100 μL of compound solution with certain concentration gradient was added into each well, and 3 duplicate wells were set for each concentration. The plate was cultured in a CO2 incubator at 37° C. for 72 h. 20 μL of MTT working solution (5 mg/mL) was added into each well, and the plate was placed at 37° C. for 4 h, and centrifuged at 1000 rpm for 5 min by a plate centrifuge. After 180 μL of culture medium was discarded, the plate was added with 150 μL of DMSO, and mixed well with a microplate shaker, the plate bottom was wiped, and optical density (OD) at 550 nm was detected with a microplate reader.

In series [11] the target is T11, Ba/F3 ETV6-NTRK3-G623R (Homo sapiens, UniProt Q16288, G623R, cells depend on it).
T11 construct: fused on or other part: P41212 (Transcription factor ETV6)
The series is described as follows: In vitro cell proliferation inhibition (MTT). It counts as cell-based, murine. The following applies: 72 h, read-out: IC50 Ba/F3 ETV6-NTRK3-G623R. On the procedure: as §6

Series [12] addresses T12, Ba/F3 LMNA-NTRK1 (Homo sapiens, UniProt P04629).
T12 construct: fused on or other part: P02545 (Prelamin-A/C)
The series is described as follows: In vitro cell proliferation inhibition (MTT). It counts as cell-based, murine. The following applies: 72 h, read-out: IC50 Ba/F3 LMNA-NTRK1. On the procedure:
as §6

In series [13] the target is T13, Ba/F3 LMNA-NTRK1-G595R (Homo sapiens, UniProt P04629, G595R, cells depend on it).
T13 construct: fused on or other part: P02545 (Prelamin-A/C)
As to the kind of experiment: In vitro cell proliferation inhibition (MTT). The series is classed as cell-based, murine. The following applies: 72 h, read-out: IC50 Ba/F3 LMNA-NTRK1-G595R. On the procedure: as §6

Series [14] addresses T14, Ba/F3 LMNA-NTRK1-G667C (Homo sapiens, UniProt P04629, G667C, cells depend on it).
T14 construct: fused on or other part: P02545 (Prelamin-A/C)
The series is described as follows: In vitro cell proliferation inhibition (MTT). It counts as cell-based, murine. The following applies: 72 h, read-out: IC50 Ba/F3 LMNA-NTRK1-G667C. The protocol: as §6

Series [15] has as its target T15, Ba/F3 ETV6-NTRK3-G696A (Homo sapiens, UniProt Q16288, G696A, cells depend on it).
T15 construct: fused on or other part: P41212 (Transcription factor ETV6)
The series is described as follows: In vitro cell proliferation inhibition (MTT). The following applies: 72 h, read-out: IC50 Ba/F3 ETV6-NTRK3-G696A. The series is classed as cell-based, murine. On the procedure: • Source of 6 kinds of cell lines for the test: KYinno Biotechnology (Beijing) Co., Ltd. • Cell type: murine B cells • Culture medium: RPMI-1640+10% FB S 2. Test Method
as §6

Series [16] has as its system Ba/F3 LMNA-NTRK1-G595R model. The following applies: gavage. The protocol:
(§7) The cells in the logarithmic growth phase were collected and re-suspending in serum-free culture medium to make the cell concentration at […] cells/mL. The cell suspension was added with equal volume of Matrigel to make the final cell concentration at 3×10^7-5×10^7 cells/mL. The animal model was established by subcutaneously inoculating 0.1 mL of tumor cell suspension in the axilla of the forelimb of NuNu mice (female, 4-6 weeks, Beijing Vital River Laboratory Animal Technology Co., Ltd.) in an amount of 3×10^6-5×10^6 cells/mouse.
(§8) The maximum and the minimum tumor diameters of the xenografts in nude mice were measured using a vernier caliper, and the tumor volume (TV) was calculated according to the formula: V=½×a×b^2, where a and b represent the maximum and minimum diameters of the tumor mass, respectively. Nude mice with appropriate tumor volume were selected and the mice were evenly divided into 7 groups of 6 mice (100-200 mm^3) by tumor volume using a random number method.
(§9) Tumor diameters were measured twice weekly and tumor volume was calculated. […] (where Ti represents the mean tumor volume of a certain administration group on a certain day; TO represents the mean tumor volume of the administration group at the start of administration, Vi represents the mean tumor volume of the vehicle control group on a certain day (same day as Ti) and V0 represents the mean tumor volume of the vehicle control group at the start of administration); • Tumor inhibition rate: at the end of the test, the animals were executed by removing the cervical vertebrae.

The test system of series [17] is Ba/F3 LMNA-NTRK1-G667C model. The following applies: 100 mg/kg, gavage. On the procedure: as §7, §8, §9
In series [18] the test system is tropomyosin receptor kinase. The following applies: 46 evaluable patients, phase I and phase II clinical trials; cited from earlier work.

What is called IC50 is the concentration needed to halve the response being measured. A low value points to inhibition by little substance. Turning to `O=C(Nc1ccc(C2CCN(C(=O)CO)CC2)cc1)c1cnn2ccc(N3C[C@@H](F)C[C@@H]3c3cc(F)ccc3F)nc12` [Compound 10, 5-((2R,4S)-2-(2,5-difluorophenyl)-4-fluoropyrrolidin-1-yl)-N-(4-(1-(2-hydroxyacetyl)piperidin-4-yl)phenyl)pyrazolo[1,5-a]pyrimidine-3-carboxamide], the IC50 in series [1] is 0.322 nM; in series [2] it was 1.15 nM; in series [3] it was 1.04 nM; in [4] it was under 0.169 nM; in series [5], 0.57 nM; in series [6], 0.804 nM. The figures for the IC50 in [7], in [8] and in [9] were 0.558 nM, 31 nM and 0.4 nM, respectively. For the same molecule, the GI50 in series [10] was 0.977 nM; in series [11], 0.277 nM; in series [12] it was 0.526 nM; in series [13] it was 0.095 nM; in [14], 0.536 nM; in series [15], 0.693 nM. For the same molecule, the “Number of animals (Survival/total)” value in series [16] (50 mg/kg), in series [16] (100 mg/kg) and in [17] was “(6/6)” throughout. Further, the “Rate of weight gain (%)” value in series [16] (50 mg/kg) came out at 13.47%; in series [16] (100 mg/kg), 4.36%; in [17], 5.75%. Also, the “TGI (%)” value worked out at 134.7% in [16] (50 mg/kg), 132.5% in series [16] (100 mg/kg) and 111.6% in series [17]. Further, the “Tumor volume (mm^3)” value in [16] (50 mg/kg) was 20.0 ± 12.6 mm^3; in series [16] (100 mg/kg), 25.8 ± 8.3 mm^3; in [17] it was 91.6 ± 19.5 mm^3. For the same molecule, the “Tumor weight” value in [16] (50 mg/kg) turned out to be 0.01 ± 0.01 g; in series [16] (100 mg/kg) it was 0.02 ± 0.01 g; in [17], 0.12 ± 0.02 g. For the same molecule, the entries for the “Tumor weight inhibition rate (%)” value in series [16] (50 mg/kg), in series [16] (100 mg/kg) and in series [17] were 98.09%, 96.75% and 77.80%, respectively.

As to `O=C(Nc1ccc(NC2COC2)cc1)c1cnn2ccc(N3C[C@@H](F)C[C@@H]3c3cc(F)ccc3F)nc12` [Compound 19, 5-((2R,4S)-2-(2,5-difluorophenyl)-4-fluoropyrrolidin-1-yl)-N-(4-(oxetan-3-ylamino)phenyl)pyrazolo[1,5-a]pyrimidine-3-carboxamide], the half-maximal inhibitory concentration (IC50) is 0.265 nM in series [1]; 0.984 nM in series [2]; 0.724 nM in [3]; under 0.169 nM in series [4]; 0.308 nM in [5]; 0.241 nM in [6]. The IC50 in series [7] was 0.936 nM; in [8], 39 nM; in series [9] it was 0.23 nM. The GI50 amounted to 0.866 nM in series [10]; 0.426 nM in [11]; 0.416 nM in [12]; 0.208 nM in series [13]; 1.19 nM in series [14]; 0.321 nM in [15].

Regarding `O=C(Nc1ccc(N2CC[C@H](O)C2)cc1)c1cnn2ccc(N3C[C@@H](F)C[C@@H]3c3cc(F)ccc3F)nc12` [Compound 21], the IC50 in series [1] was 0.405 nM; in series [2] it was 1.55 nM; in [3], 0.901 nM; in series [4], under 0.169 nM; in series [5] it was 0.632 nM; in series [6] it was 0.749 nM. Also, the IC50 in series [7] came out at 1.2 nM; in [8], 30 nM; in [9], 0.33 nM. Moreover, the GI50 in series [14] was determined as 0.584 nM.

As for `O=C(Nc1cnn2ccc(N3CCC[C@@H]3c3cc(F)ccc3F)nc12)N1CC[C@H](O)C1` [LOXO-101, Larotrectinib], the IC50 in series [8] was over 1000 nM. For the same molecule, the GI50 was 15.1 nM in [10], 376 nM in series [11] and 35.8 nM in [15]. The “Overall Response Rate (ORR)” value in [18] is given as 78%.
